Source: PMC11725774 (Cancer Research Communications, 2025)
Read-outs that look alike come from different tables or passages of the source.

Experiments:
[1] = tested on: TUS/R line 4 (MOLM-14); assay: Growth inhibition of TUS-resistant subline; format: cell-based, human; settings: for GI50: mean ± SEM (Supplementary Table 6)
[2] = tested on: TUS/R MOLM-14 cells; assay: Growth inhibition of TUS-resistant sublines versus parental; format: cell-based, human
[3] = tested on: MV-4-11 cells; assay: Growth inhibition of AML cell line; format: cell-based, human
Experimental: (§1) MV-4-11 cells expressing NRAS^G12D were prepared by transduction with a lentiviral vector encoding the NRAS^G12D mutation. Assays using a panel of parental Ba/F3 into which an additional copy of either WT or a mutant form of FLT3 was introduced were performed at Kyinno Biotechnology Co., Ltd. All cell lines were short tandem repeat authenticated at ATCC or at DSMZ when originally obtained, and no further authentication was done after receipt of the cells in the laboratory.
(§2) Assays using Ba/F3 cells expressing WT and mutant forms of FLT3 were performed by Kyinno Biotechnology. The cells were cultured in the medium recommended by the source for each cell line. Growth inhibition assays were performed using either Cell Titer 96 Aqueous One Solution Cell Proliferation assay (Promega, # G3581) or CCK8 (Dojindo, # CK-04). […] IC50 values were determined from growth inhibition curves fitted using GraphPad Prism and a nonlinear regression model with sigmoidal dose response. Unless otherwise indicated, data are presented as mean ± SEM.

[4] = tested on: MOLM-14 cells (parental); assay: Growth inhibition of AML cell line; format: cell-based, human
Experimental: as §1, §2

[5] = tested on: MV-4-11 NRAS G12D Clone 4; assay: Growth inhibition of NRAS G12D clone; format: cell-based, human
Experimental: as §1, §2

[6] = tested on: MV-4-11 NRAS G12D Clone 1; assay: Growth inhibition of NRAS G12D clone; format: cell-based, human; settings: for GI50: MV-4-11 NRAS G12D, mean ± SEM
Experimental: as §1, §2

[7] = tested on: MV-4-11 NRAS G12D Clone 15; assay: Growth inhibition of NRAS G12D clone; format: cell-based, human; settings: for GI50: MV-4-11 NRAS G12D, mean ± SEM
Experimental: as §1, §2

[8] = tested on: TUS/R line 3 (MOLM-14); assay: Growth inhibition of TUS-resistant subline; format: cell-based, human; settings: for GI50: mean ± SEM (Supplementary Table 6)
[9] = tested on: TUS/R line 2 (MOLM-14); assay: Growth inhibition of TUS-resistant subline; format: cell-based; settings: Homo sapiens, MOLM-14, read-out: IC50 (nmol/L), Mean ± SEM, TUS/R line 2
[10] = tested on: TUS/R line 1 (MOLM-14); assay: Growth inhibition of TUS-resistant subline; format: cell-based; settings: Homo sapiens, MOLM-14, read-out: IC50 (nmol/L), Mean ± SEM, TUS/R line 1
[11] = tested on: p-JAK1, p-JAK2, p-STAT3, p-STAT5 in MOLM-14 cells cocultured with HS-5 cells; assay: HS-5 stromal coculture Western blot; format: cell-based, human; settings: concentrations <1 μmol/L; MOLM-14 cocultured with HS-5
Experimental: Cells were treated as described in respective Results sections and then lysed with RIPA buffer. Western blot analyses were performed with antibodies capable of detecting both total and phosphorylated forms of each kinase purchased from commercial sources. Information on the antibodies used is provided in the Supplementary Materials section.
HS-5 cells were obtained from ATCC. The HS-5 stromal cells (5 × 10^5 cells/well) were seeded into six-well plates, and 24 hours later, MOLM-14 cells (1 × 10^6 cells/well) were seeded into the same plate and then cultured for 48 hours. Cultures were then exposed to test drugs for 2 hours, harvested, and lysates were prepared for Western blotting. For stimulation studies, MOLM-14 or KG-1a cells were seeded at 5.0 to 6.0 × 10^6 cells/well into six-well plates in 2 mL medium. Cells were stimulated with 500 μg/mL fibrinogen (Sigma-Aldrich, Catalog # F3879) for 1 hour at 37°C. Alternatively, they were treated with 10 μg/mL IgG (Invitrogen, Catalog # 31154) for 10 minutes on ice followed by IgG cross-linking with 1 μg/mL anti–human IgG antibody for 10 minutes on ice. After these incubations, the media were removed and the cells were washed with cold PBS, lysed, and analyzed by Western blotting.

[12] = tested on: Ba/F3 cells FLT3 ITD/F691L; assay: Growth inhibition of Ba/F3 cells; format: cell-based, murine; settings: Mus musculus, BaF3; Ba/F3 FLT3 ITD/F691L; mean ± SD; read-out: GI50
Experimental: as §1, §2

[13] = tested on: Ba/F3 cells FLT3 D835Y; assay: Growth inhibition of Ba/F3 cells; format: cell-based, murine; settings: Mus musculus, BaF3; Ba/F3 FLT3 D835Y; mean ± SD; read-out: GI50
Experimental: as §1, §2

[14] = tested on: Ba/F3 cells FLT3 ITD; assay: Growth inhibition of Ba/F3 cells; format: cell-based, murine; settings: Mus musculus, BaF3; Ba/F3 FLT3 ITD; mean ± SD; read-out: GI50
Experimental: as §1, §2

[15] = tested on: Ba/F3 cells FLT3 ITD/D835Y; assay: Growth inhibition of Ba/F3 cells; format: cell-based, murine; settings: Mus musculus, BaF3; Ba/F3 FLT3 ITD/D835Y; mean ± SD; read-out: GI50
Experimental: as §1, §2

[16] = tested on: Ba/F3 cells FLT3 WT; assay: Growth inhibition of Ba/F3 cells; format: cell-based, murine; settings: Mus musculus, BaF3; Ba/F3 FLT3 WT; mean ± SD; read-out: GI50
Experimental: as §1, §2

[17] = target: FLT3 D835Y (Homo sapiens, UniProt P36888, D835Y); assay: Biochemical enzyme activity screening assay; settings: kinase FLT3 D835Y; mean ± SD
[18] = tested on: MOLM-13 cells; assay: Growth inhibition of AML cell line; format: cell-based; settings: Homo sapiens, mean ± SD
Experimental: as §1, §2

[19] = Homo sapiens, MOLM-14, read-out: GI50 (nM) TUS/R line 4
[20] = Homo sapiens, MV4-11, mean ± SEM (Supplementary Table 7), read-out: GI50 (nM) Parental (MV-4-11)
[21] = Homo sapiens, MOLM-14, mean ± SEM (Supplementary Table 6), read-out: GI50 (nM) Parental MOLM-14 (converted)
[22] = Homo sapiens, MV4-11, MV-4-11 NRAS G12D, high expression, mean ± SEM, read-out: GI50 (nM) Clone 4
[23] = Homo sapiens, MOLM-14, read-out: GI50 (nM) TUS/R line 3
[24] = 13 to […]-fold increase in NRAS G12D expression
[25] = Homo sapiens, MV4-11, MV-4-11, mean ± SD (Supplementary Table 4), read-out: GI50
[26] = Homo sapiens, MOLM-14, mean ± SD (Supplementary Table 4), read-out: GI50

Row | GI50 [1, 19] [nM] | GI50 [5, 22] [nM] | GI50 ([6]; Homo sapiens, MV4-11) [nM] | GI50 ([7]; Homo sapiens, MV4-11) [nM] | GI50 [8, 23] [nM] | SMILES | fold hypersensitive, TUS/R versus parental MOLM-14 [2] | GI50 [3, 20] [nM] | GI50 [4, 21] [nM] | other results
1 | 26.8 ± 1.8 |  |  |  | 28.9 ± 2.7 | Cn1c(=O)n(-c2ccc(C(C)(C)C#N)cc2)c2c3cc(-c4cnc5ccccc5c4)ccc3ncc21 [Dactolisib, dactolisib] | not more sensitive |  | 21.3 ± 1.4 | 
2 | ~1130 |  |  |  | ~1100 | N#CC[C@H](C1CCCC1)n1cc(-c2ncnc3[nH]ccc23)cn1 [Ruxolitinib, ruxolitinib] |  |  |  | 
3 | 459 ± 86.2 |  |  |  | 176 ± 32.9 | COc1cc(Nc2ncc(F)c(Nc3ccc4c(n3)N(COP(=O)(O)O)C(=O)C(C)(C)O4)n2)cc(OC)c1OC [Fostamatinib, fostamatinib] | not more sensitive |  |  | 
4 |  |  |  |  |  | Cc1c(-c2c(-c3ccc(F)o3)sc3ncnc(O[C@H](Cc4ccccc4OCc4ccnn4CC(F)(F)F)C(=O)O)c23)ccc(OCCN2CCN(C)CC2)c1Cl [S63845] | ~20 fold |  |  | GI50 ([1]; read-out: GI50 (nM) TUS/R line 4): 4.6 ± 0.3 nM; GI50 ([3]; mean ± SEM (Supplementary Table 7), read-out: GI50 (nM) Parental (MV-4-11)): 4.6 ± 0.4 nM; GI50 ([4]; mean ± SEM (Supplementary Table 6), read-out: GI50 (nM) Parental MOLM-14 (converted)): 105 ± 19.8 nM; GI50 ([5]; MV-4-11 NRAS G12D, high expression, mean ± SEM, read-out: GI50 (nM) Clone 4): 7.3 ± 1.5 nM; GI50 [6]: 1.1 ± 0.3 nM; GI50 [7]: 1.5 ± 0.1 nM; GI50 ([8]; read-out: GI50 (nM) TUS/R line 3): 5.6 ± 0.7 nM
5 |  | 2260 ± 156 | 5.5 ± 1.4 | 4.9 ± 1.3 |  | CC1(C)CCC(CN2CCN(c3ccc(C(=O)NS(=O)(=O)c4ccc(NCC5CCOCC5)c([N+](=O)[O-])c4)c(Oc4cnc5[nH]ccc5c4)c3)CC2)=C(c2ccc(Cl)cc2)C1 [Venetoclax, venetoclax] |  | 10.5 ± 1.7 |  | IC50 ([1]; Homo sapiens, MOLM-14, read-out: IC50 (nmol/L), Mean ± SEM, TUS/R line 4): 5 ± 0.8 nmol/L; IC50 ([4]; Homo sapiens, MOLM-14, growth inhibition, three independent experiments, read-out: IC50 (nmol/L), Mean ± SEM, MOLM-14 parental): 3020 ± 464 nmol/L; fold resistant / loss of sensitivity, clone 4 versus parental MV-4-11 ([5]; high NRAS G12D expression): 214 fold; change in sensitivity, clone 1 [6, 24]: did not alter sensitivity; change in sensitivity, clone 15 [7, 24]: did not alter sensitivity; IC50 [9]: 1.5 ± 0.05 nmol/L; IC50 ([8]; Homo sapiens, MOLM-14, read-out: IC50 (nmol/L), Mean ± SEM, TUS/R line 3): 1.1 ± 0.2 nmol/L; IC50 [10]: 1.3 ± 0.1 nmol/L
6 | 18.2 ± 1.6 | 44.3 ± 8.3 | 10.1 ± 3.2 | 7.2 ± 0.4 | 22.8 ± 2.7 | Cc1c2c(nn1C)CSCc1cc(n(C)n1)CSc1cc(c3ccccc3c1)OCCCc1c(C(=O)O)n(C)c3c-2c(Cl)ccc13 [AZD5991] | ~8 fold | 32.5 ± 5.4 | 168 ± 33.7 | 
7 | 0.1 ± 0.01 |  |  |  | 0.1 ± 0.01 | Cc1cnc(-c2ccc(-c3ccc(NC(=O)Nc4c(F)cc(F)cc4F)cc3F)c3c2C(=O)NC3)[nH]1 [Luxeptinib] |  |  | 0.2 ± 0.01 | 
8 |  | 209 ± 33.9 | 187 ± 38.6 | 104 ± 11.1 |  | Cc1ccc2c(Nc3cccc(Cl)c3F)nccc2c1NC(=O)c1csc2c(N)ncnc12 [Belvarafenib, belvarafenib] |  | 750 ± 92.8 |  | 
9 | 142 ± 9.1 |  |  |  | 164 ± 14.7 | COC1=CC(c2cc3ccccc3[nH]2)=N/C1=C\c1[nH]c(C)cc1C [Obatoclax, obatoclax] | no increase in sensitivity |  | 98.2 ± 7.7 | 
10 | 0.5 ± 0.1 |  | 1.1 ± 0.2 | 1.3 ± 0.4 | 0.2 ± 0.1 | CC(C)(C)c1cc(NC(=O)Nc2ccc(-c3cn4c(n3)sc3cc(OCCN5CCOCC5)ccc34)cc2)no1 [Quizartinib, quizartinib] |  | 0.5 ± 0.1 | 0.5 ± 0.02 | GI50 [3, 25]: 0.2 ± 0.1 nM; GI50 [4, 26]: 0.6 ± 0.2 nM; GI50 ([5]; Homo sapiens, MV4-11, read-out: GI50 (nM) Clone 4): 1.9 ± 0.5 nM; GI50 [18]: 0.9 ± 0.5 nM
11 | 1580 ± 145 |  |  |  | 1620 ± 294 | Nc1ncn([C@@H]2O[C@H](CO)[C@@H](O)[C@H]2O)c(=O)n1 [5-Azacytidine, 5-azacytidine] |  |  | 2140 ± 231 | 
12 |  |  |  |  |  | CO[C@@H]1[C@H](N(C)C(=O)c2ccccc2)C[C@H]2O[C@]1(C)n1c3ccccc3c3c4c(c5c6ccccc6n2c5c31)C(=O)NC4 [Midostaurin, midostaurin] |  |  |  | GI50 [12]: 16 ± 3.5 nM; GI50 [13]: 9 ± 2.7 nM; GI50 [14]: 5.1 ± 0.1 nM; GI50 [15]: 21 ± 1.1 nM; GI50 [3, 25]: 6 ± 1.4 nM; GI50 [4, 26]: 12 ± 7.1 nM; GI50 [18]: 19 ± 14 nM

Row | SMILES | GI50 [1, 19] [nM] | GI50 [5, 22] [nM] | GI50 ([6]; Homo sapiens, MV4-11) [nM] | GI50 ([7]; Homo sapiens, MV4-11) [nM] | GI50 [8, 23] [nM] | fold hypersensitive, TUS/R versus parental MOLM-14 [2] | GI50 [3, 20] [nM] | GI50 [4, 21] [nM] | other results
13 | CC(=O)Nc1cccc(-n2c(=O)n(C3CC3)c(=O)c3c(Nc4ccc(I)cc4F)n(C)c(=O)c(C)c32)c1 [Trametinib, trametinib] | 101.5 ± 0.4 | 2.5 ± 0.7 | 1.6 ± 0.4 | 2.3 ± 0.8 | 67 ± 12.8 | ~1.9 fold | 6.7 ± 1.6 | 153 ± 14.5 | 
14 | CC1(C)CCC(c2ccc(Cl)cc2)=C(CN2CCN(c3ccc(C(=O)NS(=O)(=O)c4ccc(N[C@H](CCN5CCOCC5)CSc5ccccc5)c(S(=O)(=O)C(F)(F)F)c4)cc3)CC2)C1 [Navitoclax, navitoclax] | 15 ± 2.1 |  |  |  | 15.3 ± 2.4 | ~27 fold |  | 410 ± 50.2 | 
15 | CCc1nc(C(N)=O)c(Nc2ccc(N3CCC(N4CCN(C)CC4)CC3)c(OC)c2)nc1NC1CCOCC1 [Gilteritinib, gilteritinib] | 128 | 51 ± 12.2 | 3.3 ± 0.7 | 5.6 ± 1.1 | 118 |  | 2.4 ± 0.7 | 8.6 | inhibition of p-JAK1, p-JAK2, p-STAT3, or p-STAT5 [11]: Neither TUS nor gilteritinib inhibited; GI50 [12]: 33 ± 6.2 nM; GI50 [13]: 2.3 ± 0.7 nM; GI50 [14]: 1.2 ± 0.2 nM; GI50 [15]: 4.4 ± 0.6 nM; GI50 [16]: 7 ± 1.5 nM; GI50 [17]: 0.5 ± 0.1 nM; GI50 [3, 25]: 2 ± 0.2 nM; GI50 [4, 26]: 6.1 ± 2.8 nM; GI50 [18]: 8.4 ± 2.9 nM
